From patent US9073903B2, “Imidazole-2,4-dione inhibitors of casein kinase 1” (Jasco Pharmaceuticals, LLC, priority 2010, dated 2015)
Read-outs that look alike come from different tables or passages of the source.

Key:
MDA-MB-468 cells = assay: Inhibition of MDA-MB-468 cells (MTS cell proliferation); format: cell-based; details: for OD value 1 / OD value 2: 490 nm; for OD value 1 / OD value 2 / inhibition at 0.4 µM / inhibition at 0.8 µM / inhibition at 1.6 µM / inhibition at 3.2 µM / inhibition at 6.25 µM / inhibition at 12.5 µM / inhibition at 25 µM / inhibition at 50 µM / inhibition at 100 µM: 72 h; for inhibition at 0.4 µM / inhibition at 0.8 µM / inhibition at 1.6 µM / inhibition at 3.2 µM / inhibition at 6.25 µM / inhibition at 12.5 µM / inhibition at 25 µM / inhibition at 50 µM / inhibition at 100 µM / IC50: Homo sapiens
Protocol: Inhibition of MDA-MB-468 Cells Cells: MDA-MB-468 cells, ATCC Passage unknown, Mycoplasma free. Medium: RPMI-1640 Medium (GIBCO Cat #22400121) supplemented with 10% fetal bovine serum (Hyclone Cat #SH30396.03). Seeding: 2,000 cells/well (100 ul) into 96-wells plate, incubated overnight at 37° C. in a humidified, 5% CO2 atmosphere. Treatment: Test compounds and Gemcitabine were prepared in a serial dilution (1:2) by culture medium. Fifty microliters (50 uL) of serially diluted solutions were added into each well. The final concentrations of the positive control and test compounds were shown in the graphs. The cells were incubated for 72 hours after addition of the test compounds. MTS: 15 uL of MTS solution (Promega Cat #G5430) was added into each well and incubated with cells for 4 hours at 37° C. in a humidified, 5% CO2 atmosphere. Measurement: Absorbance at 490 nm was measured using MD Spectramax Plus384 spectrophotometer. The regression curves were calculated by the GraphPad Prism 5 using “log(inhibitor) vs response—variable slope”.

LNCaP = assay: Inhibition of LNCaP cells (MTS cell proliferation); format: cell-based; details: for OD value 1 / OD value 2: 490 nm; for OD value 1 / OD value 2 / inhibition at 0.4 µM / inhibition at 0.8 µM / inhibition at 1.6 µM / inhibition at 3.2 µM / inhibition at 6.25 µM / inhibition at 12.5 µM / inhibition at 25 µM / inhibition at 50 µM / inhibition at 100 µM: 72 h; for inhibition at 0.4 µM / inhibition at 0.8 µM / inhibition at 1.6 µM / inhibition at 3.2 µM / inhibition at 6.25 µM / inhibition at 12.5 µM / inhibition at 25 µM / inhibition at 50 µM / inhibition at 100 µM / IC50: Homo sapiens
Protocol: Inhibition of LNCaP Cells Cells: LNCaP, ATCC Passage unknown, Mycoplasma free. Medium: RPMI-1640 Medium (GIBCO Cat #22400121) supplemented with 10% fetal bovine serum (Hyclone Cat #SH30396.03). Seeding: 3,000 cells/well (100 uL) into 96-wells plate, incubated overnight at 37° C. in a humidified, 5% CO2 atmosphere. Treatment: Test compounds and Gemcitabine were prepared in a serial dilution (1:2) by culture medium. Fifty microliters (50 uL) of serially diluted solutions were added into each well. The final concentrations of the positive control and test compounds were shown in the graphs. The cells were incubated for 72 hours after addition of the test compounds. MTS: 15 uL of MTS solution (Promega Cat #G5430) was added into each well and incubated with cells for 4 hours at 37° C. in a humidified, 5% CO2 atmosphere. Measurement: Absorbance at 490 nm was measured using MD Spectramax Plus384 spectrophotometer. The regression curves were calculated by the GraphPad Prism 5 using “log(inhibitor) vs response—variable slope”. Calculation: % of inhibition+(AVE zero ctrl−AVE compound)/AVE zero ctrl*100.

For `Nc1ccn([C@@H]2O[C@H](CO)[C@@H](O)C2(F)F)c(=O)n1` [Gemcitabine], the “OD value 1” value (MDA-MB-468 cells; 0.400 μM, replicate 1) was 0.313, the “OD value 2” value (MDA-MB-468 cells; 0.400 μM, replicate 2) was 0.337 and the “OD value 1” value (MDA-MB-468 cells; 0.800 μM, replicate 1) was 0.275. For the same compound, the “OD value 2” value (MDA-MB-468 cells; 0.800 μM, replicate 2) was 0.310, the “OD value 1” value (MDA-MB-468 cells; 1.600 μM, replicate 1) was 0.201 and the “OD value 2” value (MDA-MB-468 cells; 1.600 μM, replicate 2) was 0.264. The “OD value 1” value (MDA-MB-468 cells; 3.200 μM, replicate 1) was 0.151, the “OD value 2” value (MDA-MB-468 cells; 3.200 μM, replicate 2) was 0.192 and the “OD value 1” value (MDA-MB-468 cells; 6.250 μM, replicate 1) was 0.101. For the same compound, the “OD value 2” value (MDA-MB-468 cells; 6.250 μM, replicate 2) was 0.105, the “OD value 1” value (MDA-MB-468 cells; 12.500 μM, replicate 1) was 0.066 and the “OD value 2” value (MDA-MB-468 cells; 12.500 μM, replicate 2) was 0.053. For the same compound, the “OD value 1” value (MDA-MB-468 cells; 25.000 μM, replicate 1) was 0.033, the “OD value 2” value (MDA-MB-468 cells; 25.000 μM, replicate 2) was 0.035 and the “OD value 1” value (MDA-MB-468 cells; 50.000 μM, replicate 1) was 0.064. For the same compound, the “OD value 2” value (MDA-MB-468 cells; 50.000 μM, replicate 2) was 0.064, the “OD value 1” value (MDA-MB-468 cells; 100.000 μM, replicate 1) was 0.034 and the “OD value 2” value (MDA-MB-468 cells; 100.000 μM, replicate 2) was 0.007. The inhibition at 0.4 µM (MDA-MB-468 cells; MDA-MB-468, 0.400 μM, replicate 1, read-out: % of inhibition 1) was 6.01%, the inhibition at 0.4 µM (MDA-MB-468 cells; MDA-MB-468, 0.400 μM, replicate 2, read-out: % of inhibition 2) was 1.17% and the inhibition at 0.8 µM (MDA-MB-468 cells; MDA-MB-468, 0.800 μM, replicate 1, read-out: % of inhibition 1) was 17.4%. For the same compound, the inhibition at 0.8 µM (MDA-MB-468 cells; MDA-MB-468, 0.800 μM, replicate 2, read-out: % of inhibition 2) was 9.08%, the inhibition at 1.6 µM (MDA-MB-468 cells; MDA-MB-468, 1.600 μM, replicate 1, read-out: % of inhibition 1) was 39.6% and the inhibition at 1.6 µM (MDA-MB-468 cells; MDA-MB-468, 1.600 μM, replicate 2, read-out: % of inhibition 2) was 22.6%. The inhibition at 3.2 µM (MDA-MB-468 cells; MDA-MB-468, 3.200 μM, replicate 1, read-out: % of inhibition 1) was 54.7%, the inhibition at 3.2 µM (MDA-MB-468 cells; MDA-MB-468, 3.200 μM, replicate 2, read-out: % of inhibition 2) was 43.6% and the inhibition at 6.25 µM (MDA-MB-468 cells; MDA-MB-468, 6.250 μM, replicate 1, read-out: % of inhibition 1) was 69.7%. The inhibition at 6.25 µM (MDA-MB-468 cells; MDA-MB-468, 6.250 μM, replicate 2, read-out: % of inhibition 2) was 69.1%, the inhibition at 12.5 µM (MDA-MB-468 cells; MDA-MB-468, 12.500 μM, replicate 1, read-out: % of inhibition 1) was 80.2% and the inhibition at 12.5 µM (MDA-MB-468 cells; MDA-MB-468, 12.500 μM, replicate 2, read-out: % of inhibition 2) was 84.4%. For the same compound, the inhibition at 25 µM (MDA-MB-468 cells; MDA-MB-468, 25.000 μM, replicate 1, read-out: % of inhibition 1) was 90.1%, the inhibition at 25 µM (MDA-MB-468 cells; MDA-MB-468, 25.000 μM, replicate 2, read-out: % of inhibition 2) was 89.6% and the inhibition at 50 µM (MDA-MB-468 cells; MDA-MB-468, 50.000 μM, replicate 1, read-out: % of inhibition 1) was 80.8%. The inhibition at 50 µM (MDA-MB-468 cells; MDA-MB-468, 50.000 μM, replicate 2, read-out: % of inhibition 2) was 81.1%, the inhibition at 100 µM (MDA-MB-468 cells; MDA-MB-468, 100.000 μM, replicate 1, read-out: % of inhibition 1) was 89.8% and the inhibition at 100 µM (MDA-MB-468 cells; MDA-MB-468, 100.000 μM, replicate 2, read-out: % of inhibition 2) was 97.8%. It also gave an IC50 (MDA-MB-468 cells; MDA-MB-468, Table 17, read-out: MDA-MB-468* 50% inhibition concentration) of 3.34 µM, an IC50 (MDA-MB-468 cells; Table 26, MDA-MB-468, 72 hours, read-out: 50% viability conc.) of 3.34 µM and an IC50 (MDA-MB-468 cells; Table 26, MDA-MB-468, 72 hours, read-out: IC50) of 2.53 µM. For the same compound, the Maximal inhibition % (MDA-MB-468 cells; Table 26, MDA-MB-468, 72 hours) was 93.83%, the “OD value 1” value (LNCaP; 0.400 uM, replicate 1) was 0.578 and the “OD value 2” value (LNCaP; 0.400 uM, replicate 2) was 0.662. For the same compound, the “OD value 1” value (LNCaP; 0.800 uM, replicate 1) was 0.459, the “OD value 2” value (LNCaP; 0.800 uM, replicate 2) was 0.434 and the “OD value 1” value (LNCaP; 1.600 uM, replicate 1) was 0.448. For the same compound, the “OD value 2” value (LNCaP; 1.600 uM, replicate 2) was 0.472, the “OD value 1” value (LNCaP; 3.200 uM, replicate 1) was 0.322 and the “OD value 2” value (LNCaP; 3.200 uM, replicate 2) was 0.337. For the same compound, the “OD value 1” value (LNCaP; 6.250 uM, replicate 1) was 0.182, the “OD value 2” value (LNCaP; 6.250 uM, replicate 2) was 0.190 and the “OD value 1” value (LNCaP; 12.500 uM, replicate 1) was 0.166. For the same compound, the “OD value 2” value (LNCaP; 12.500 uM, replicate 2) was 0.173, the “OD value 1” value (LNCaP; 25.000 uM, replicate 1) was 0.101 and the “OD value 2” value (LNCaP; 25.000 uM, replicate 2) was 0.177. For the same compound, the “OD value 1” value (LNCaP; 50.000 uM, replicate 1) was 0.124, the “OD value 2” value (LNCaP; 50.000 uM, replicate 2) was 0.202 and the “OD value 1” value (LNCaP; 100.000 uM, replicate 1) was 0.112. The “OD value 2” value (LNCaP; 100.000 uM, replicate 2) was 0.197, the inhibition at 0.4 µM (LNCaP; LNCaP, 0.400 uM, replicate 1, read-out: % of inhibition 1) was 12.8% and the inhibition at 0.4 µM (LNCaP; LNCaP, 0.400 uM, replicate 2, read-out: % of inhibition 2) was 13.6%. It also gave an inhibition at 0.8 µM (LNCaP; LNCaP, 0.800 uM, replicate 1, read-out: % of inhibition 1) of 30.8%, an inhibition at 0.8 µM (LNCaP; LNCaP, 0.800 uM, replicate 2, read-out: % of inhibition 2) of 43.4% and an inhibition at 1.6 µM (LNCaP; LNCaP, 1.600 uM, replicate 1, read-out: % of inhibition 1) of 32.4%. For the same compound, the inhibition at 1.6 µM (LNCaP; LNCaP, 1.600 uM, replicate 2, read-out: % of inhibition 2) was 38.4%, the inhibition at 3.2 µM (LNCaP; LNCaP, 3.200 uM, replicate 1, read-out: % of inhibition 1) was 51.4% and the inhibition at 3.2 µM (LNCaP; LNCaP, 3.200 uM, replicate 2, read-out: % of inhibition 2) was 56%. It also gave an inhibition at 6.25 µM (LNCaP; LNCaP, 6.250 uM, replicate 1, read-out: % of inhibition 1) of 72.5%, an inhibition at 6.25 µM (LNCaP; LNCaP, 6.250 uM, replicate 2, read-out: % of inhibition 2) of 75.2% and an inhibition at 12.5 µM (LNCaP; LNCaP, 12.500 uM, replicate 1, read-out: % of inhibition 1) of 75%. The inhibition at 12.5 µM (LNCaP; LNCaP, 12.500 uM, replicate 2, read-out: % of inhibition 2) was 77.4%, the inhibition at 25 µM (LNCaP; LNCaP, 25.000 uM, replicate 1, read-out: % of inhibition 1) was 84.8% and the inhibition at 25 µM (LNCaP; LNCaP, 25.000 uM, replicate 2, read-out: % of inhibition 2) was 76.9%. It also gave an inhibition at 50 µM (LNCaP; LNCaP, 50.000 uM, replicate 1, read-out: % of inhibition 1) of 81.3%, an inhibition at 50 µM (LNCaP; LNCaP, 50.000 uM, replicate 2, read-out: % of inhibition 2) of 73.6% and an inhibition at 100 µM (LNCaP; LNCaP, 100.000 uM, replicate 1, read-out: % of inhibition 1) of 83.1%. It also gave an inhibition at 100 µM (LNCaP; LNCaP, 100.000 uM, replicate 2, read-out: % of inhibition 2) of 74.3%, an IC50 (LNCaP; LNCaP, Table 18, read-out: LNCaP* 50% inhibition concentration) of 1.97 µM and an IC50 (LNCaP; Table 26, LNCaP, 72 hours, read-out: 50% viability conc.) of 1.97 µM. For the same compound, the IC50 (LNCaP; Table 26, LNCaP, 72 hours, read-out: IC50) was 2.38 µM and the Maximal inhibition % (LNCaP; Table 26, LNCaP, 72 hours) was 78.69%.
